{
  "source": "BindingDB's records for doi:10.7270/Q2G73C4V",
  "about": "(Nmmlsc, 2010)",
  "target": "T1, Regulator of G-protein signaling 8 (Homo sapiens, UniProt P57771)",
  "T1 sequence (P57771 whole entry)": "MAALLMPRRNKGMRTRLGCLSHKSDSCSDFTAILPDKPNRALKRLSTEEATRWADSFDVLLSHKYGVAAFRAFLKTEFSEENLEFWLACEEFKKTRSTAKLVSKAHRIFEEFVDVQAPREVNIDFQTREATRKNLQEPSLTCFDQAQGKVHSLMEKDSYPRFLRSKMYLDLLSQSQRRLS",
  "experiment": "RGS8-Galphao interaction modulators, SAR follow-up, biochemical, multiplex bead flow cytometry, SAR compounds (AID 2307)",
  "data": [
    {"smiles": "O=C(COc1ccccc1C(=O)NN=Cc1ccc(O)c(O)c1)NN=Cc1ccc(O)c(O)c1", "note": "[N''-[(Z)-(3-hydroxy-4-oxo-1-cyclohexa-2,5-dienylidene)methyl]-2-[2-[[(Z)-(3-hydroxy-4-oxo-1-cyclohexa-2,5-dienylidene)methyl]hydrazo]-2-oxoethoxy]benzohydrazide]", "values": [
      {"measurement": "Ki", "value": 100, "unit": "nM"}
    ]},
    {"smiles": "NS(=O)(=O)c1ccc(N=NCc2ccc(O)c(O)c2O)c([N+](=O)[O-])c1", "note": "[4-[[(E)-(2,3-dihydroxy-4-oxo-1-cyclohexa-2,5-dienylidene)methyl]hydrazo]-3-nitrobenzenesulfonamide]", "values": [
      {"measurement": "Ki", "value": 20, "unit": "nM"}
    ]}
  ]
}
